Measured values from article PMC12040169 (PLOS Biology, 2025).

Experiment: in vitro
Conditions: human, hela cells, % viability

| SMILES | viability at 28.5 h, 10 µM [%] |
| --- | --- |
| Cc1ccccc1C(NC(=O)C1CCN(C(=O)OCc2ccccc2)CC1)c1ccc(=O)[nH]c1 (centres unmarked) [CBK083200] | 85.7 |
| FC(F)(F)c1ccc(CN2CCCN(c3ccnc(OCC4COc5ccccc5O4)n3)CC2)cc1 (centres unmarked) [CBK083233T] | 93 |
| NC(=O)CN1CCCN(c2ccnc(OCC3COc4ccccc4O3)n2)CC1 (centres unmarked) [CBK083236T] | 91.4 |
| COc1ccc(CN2CCCN(c3cc(OCC4COc5ccccc5O4)ncn3)CC2)cc1 (centres unmarked) [CBK083255T] | 88 |
| CCN(CC)C(=O)CN1CCCN(c2cc(OCCN3C(=O)CCC3=O)ncn2)CC1 [CBK083266T] | 102 |
| FC(F)(F)c1ccc(CN2CCCN(c3cc(OC4CCCCC4)ncn3)CC2)cc1 [CBK083277T] | 112 |
| COc1ccc(CN2CCCN(c3cc(OC4CCCCC4)ncn3)CC2)cc1 [CBK083278T] | 107 |
| Cc1cccc(C)c1NC(=O)CN1CCCN(c2cc(OCCN3C(=O)CCC3=O)ncn2)CC1 [CBK083313T] | 97.9 |
| Cc1cc(COc2cc(N3CCCN(Cc4ccc5c(c4)OCO5)CC3)ncn2)no1 [CBK083335T] | 95.7 |
| O=C1CCc2c(Cc3c(Cl)cccc3Cl)c(O)nn21 [CBK083470] | 91.3 |
| Brc1cncc2c1ccn2CCN1CCOCC1 [CBK083479] | 87.1 |
| COc1ccc(C(=O)CCCN2CC3CCC(NC(=O)Nc4ccc(F)c(F)c4)CC3C2)cc1 (centres unmarked) [CBK083514T] | 109 |
| COc1ccc(C(=O)CCCN2CCc3c([nH]c4ccc(OC)cc34)C2)cc1 [CBK083515T] | 101 |
| CC(C)(C)OC(=O)N1CCC2(CC1)NC(=O)c1cc(-c3cccnc3)ccc1O2 [CBK083517] | 94.1 |
| Cc1ccc(C(=O)N2CCC(CO)CC2)cc1C [CBK083532] | 93.8 |
| COC(=O)N1CC2(CCCCC2NCCC(F)(F)F)c2ccccc21 (centres unmarked) [CBK083539T] | 90 |
| COC(=O)N1CC2(CCCCC2NCC2CCCO2)c2ccccc21 (centres unmarked) [CBK083541T] | 95.2 |
| CC1=NN(C(=O)C2CC2)C(=O)C1Cc1ccc(F)cc1 (centres unmarked) [CBK083561] | 89.9 |
| Nc1ccc(C(=O)Oc2ccc(Oc3ccccc3)cc2)cc1 [CBK083570] | 90.5 |
| COc1ccc(OC(=O)c2ccc3nonc3c2)cc1 [CBK083571] | 97.9 |
| CCOc1ccc(OC(=O)c2cccc(C)c2)cc1 [CBK083575] | 101 |
| COc1ccc(C(NC(=O)NNC(=O)Cc2ccc(Cl)cc2)c2ccccc2C)cn1 (centres unmarked) [CBK083660] | 96.1 |

| SMILES | viability at 28.5 h, 10 µM [%] |
| --- | --- |
| Cc1ccc(C(=O)NC2CCCCCC2)cc1C [CBK083665] | 86 |
| Cc1ccc(C(=O)N(C)C2CCCCC2)cc1C [CBK083667] | 137 |
| CC(C)(C)OC(=O)N1CCC2(CC1)NC(=O)c1cc(-c3cccc4ncccc34)ccc1O2 [CBK083674] | 109 |
| Nc1c(-c2cc(F)cc(F)c2)cnc2ncccc12 [CBK083677] | 111 |
| CSc1ccc(-c2cnc3ncccc3c2N)cc1 [CBK083680] | 101 |
| Nc1c(-c2cccc(C(F)(F)F)c2)cnc2ncccc12 [CBK083710] | 105 |
| CC(C)C(=O)Nc1c(-c2ccccc2)cnc2ncccc12 [CBK083713] | 94.8 |
| CC(C)C(=O)Nc1ccc(-c2ccccc2)c2ccccc12 [CBK083731] | 101 |
| CS(=O)(=O)Nc1ccc(-c2ccccc2)c2ccccc12 [CBK083741] | 93.2 |
| CS(=O)(=O)Nc1ccc(-c2ccsc2)c2ccccc12 [CBK083742] | 98.7 |
| CS(=O)(=O)Nc1ccc(-c2cc(F)cc(F)c2)c2ccccc12 [CBK083743] | 89.8 |
| COc1cc(F)ccc1-c1ccc(NS(C)(=O)=O)c2ccccc12 [CBK083744] | 97.9 |
| COc1ccc(C(C)C)cc1-c1ccc(NS(C)(=O)=O)c2ccccc12 [CBK083747] | 97.8 |
| CS(=O)(=O)Nc1ccc(-c2ccc3c(c2)CCO3)c2ccccc12 [CBK083753] | 76.5 |
| CC(C)C(=O)Nc1ccc(-c2ccsc2)c2ccccc12 [CBK083758] | 92.7 |
| COc1ccc(CN2CCCN(c3ccnc(OCCN4CCOCC4)n3)CC2)cc1 [CBK083800] | 99.2 |
| CCN1CCCN(c2ccnc(OCCN3CCOCC3)n2)CC1 [CBK083807] | 114 |
| OCCCN1CCCN(c2ccnc(OCCN3CCOCC3)n2)CC1 [CBK083808] | 104 |
| c1ccc(CCN2CCCN(c3ccnc(OCCN4CCOCC4)n3)CC2)cc1 [CBK083810] | 89.3 |
| CCOC(=O)CN1CCCN(c2ccnc(OC3CCCCC3)n2)CC1 [CBK083864] | 90.9 |
| c1ccc(OCCN2CCCN(c3nccc(OCCN4CCOCC4)n3)CC2)cc1 [CBK083940] | 110 |
| FC(F)(F)c1ccc(CN2CCCN(c3nccc(OCc4ccc(Cl)c(Cl)c4)n3)CC2)cc1 [CBK083949] | 94.5 |
